In PubChem BioAssay AID1794803 (Yongcheng Song lab at Baylor College of Medicine, 2022):
Activity calls are given as the source filed them.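 How the source made its calls: active means EC50 under 50 µM in a live-cell viability test; inactive means the rest.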

System: NB4 APL cells, proliferation, XTT absorbance
Assay: NB4 APL cell antiproliferative activity – XTT viability, AHD inhibitor project, dose response (AID 1794803)

Row | Structure (SMILES) | EC50
1 | NC(=O)c1ccc(-c2ccc3cc(C(=O)NCC4CCNCC4)sc3c2)cc1 | > 51 µM (inactive)
2 | O=C(NCC1CCNCC1)c1coc2cc(-c3ccc(N4CCCCC4)cc3)ccc12 | 11 µM
3 | O=C(NCC1CCNCC1)c1c[nH]c2cc(-c3ccc(N4CCCCC4)cc3)ccc12 | 32 µM
4 | O=C(NCC1CCNCC1)c1cc2ccc(-c3ccc(N4CCCCC4)cc3)cc2s1 | 5.3 µM
5 | O=C(NCC1CCNCC1)c1cc2cc(-c3ccc(N4CCCCC4)cc3)ccc2[nH]1 | > 51 µM (inactive)
6 | O=C(NCC1CCNCC1)c1c[nH]c2cc(-c3ccc(N4CCCC4)cc3)ccc12 | 50 µM
7 | O=C(NCC1CCNCC1)c1cc2cc(-c3ccc(N4CCCCC4)cc3)ccc2s1 | 9.4 µM
8 | O=C(NCC1CCNCC1)c1cc2ccc(-c3ccc(N4CCCC4)cc3)cc2s1 | 10 µM
9 | O=C(NCC1CCNCC1)c1cc2cc(-c3cn[nH]c3)ccc2[nH]1 | > 51 µM (inactive)
10 | NCc1ccc(-c2ccc3cc(C(=O)NCC4CCNCC4)oc3c2)cc1 | > 51 µM (inactive)
